Values quoted from earlier work in patent US8268549B2, “Method and assay for determining methylation of GAL3 promoter for early diagnosis of prostate cancer” (University of Maryland, Baltimore, priority 2005, dated 2012).

System: galectins

SMILES | relative binding affinity, times less effective than lactose (Lac) (galectins) | ligand quality for chimera galectins (chimera galectins)
O=C[C@H](O)[C@@H](O)[C@@H](O)[C@H](O)CO [D-galactose] | ~200 times | 
CC(=O)N[C@@H]1[C@@H](O[C@@H]2O[C@H](CO)[C@H](O)[C@H](O)[C@H]2O)[C@@H](O)[C@@H](CO)O[C@@H]1O [T-disaccharide] |  | good ligand
